Assay results as given in US6685617B1, “Inhibitors of α4β1 mediated cell adhesion” (Pharmacia & Upjohn Company, priority 1998, dated 2004).

Columns and labels:
[1] = molecular target: T1, α4β1 integrin (Jurkat cell adhesion to immobilized CS-1 derived peptide CLHPGEILDVPST) (Homo sapiens, UniProt P05556+P13612); assay: Jurkat-CS-1 assay; assay type: cell-based; conditions: Jurkat cells on CS-1 peptide coated plates; read-out: JK/CS-1 (Jurkat CS-1 Assay IC50 value range)
T1 construct: 100 μl of Jurkat cells (2.5×10^6 cells/ml) in DMEM plus BSA; host or cells: Jurkat T-cell line
T1 sequence (P13612 34-1032): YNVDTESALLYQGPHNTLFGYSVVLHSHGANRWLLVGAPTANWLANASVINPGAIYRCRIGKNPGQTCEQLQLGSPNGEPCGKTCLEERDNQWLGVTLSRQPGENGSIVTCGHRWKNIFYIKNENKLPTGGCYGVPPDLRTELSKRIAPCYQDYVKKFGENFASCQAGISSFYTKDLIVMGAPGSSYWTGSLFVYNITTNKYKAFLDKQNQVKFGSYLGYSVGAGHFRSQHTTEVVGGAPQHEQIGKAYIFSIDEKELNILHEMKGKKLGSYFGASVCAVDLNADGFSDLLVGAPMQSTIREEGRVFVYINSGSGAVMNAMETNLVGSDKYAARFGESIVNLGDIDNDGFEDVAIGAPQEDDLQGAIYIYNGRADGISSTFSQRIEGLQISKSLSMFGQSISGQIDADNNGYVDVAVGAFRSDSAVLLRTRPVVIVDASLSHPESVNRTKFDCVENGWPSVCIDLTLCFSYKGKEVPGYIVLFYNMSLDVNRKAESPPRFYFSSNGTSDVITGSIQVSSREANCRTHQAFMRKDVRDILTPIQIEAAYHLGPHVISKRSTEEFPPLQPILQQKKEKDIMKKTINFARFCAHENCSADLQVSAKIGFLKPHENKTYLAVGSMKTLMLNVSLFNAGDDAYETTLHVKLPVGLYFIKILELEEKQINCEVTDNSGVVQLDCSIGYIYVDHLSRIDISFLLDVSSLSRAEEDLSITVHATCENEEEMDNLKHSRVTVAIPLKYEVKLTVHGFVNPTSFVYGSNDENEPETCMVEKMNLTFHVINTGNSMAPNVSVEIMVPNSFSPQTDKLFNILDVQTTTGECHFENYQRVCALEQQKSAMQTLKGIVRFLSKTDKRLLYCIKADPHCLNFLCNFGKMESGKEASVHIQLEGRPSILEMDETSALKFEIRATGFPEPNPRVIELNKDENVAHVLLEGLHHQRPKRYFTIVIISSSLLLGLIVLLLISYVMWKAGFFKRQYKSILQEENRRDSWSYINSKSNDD
T1 sequence (P05556 21-798): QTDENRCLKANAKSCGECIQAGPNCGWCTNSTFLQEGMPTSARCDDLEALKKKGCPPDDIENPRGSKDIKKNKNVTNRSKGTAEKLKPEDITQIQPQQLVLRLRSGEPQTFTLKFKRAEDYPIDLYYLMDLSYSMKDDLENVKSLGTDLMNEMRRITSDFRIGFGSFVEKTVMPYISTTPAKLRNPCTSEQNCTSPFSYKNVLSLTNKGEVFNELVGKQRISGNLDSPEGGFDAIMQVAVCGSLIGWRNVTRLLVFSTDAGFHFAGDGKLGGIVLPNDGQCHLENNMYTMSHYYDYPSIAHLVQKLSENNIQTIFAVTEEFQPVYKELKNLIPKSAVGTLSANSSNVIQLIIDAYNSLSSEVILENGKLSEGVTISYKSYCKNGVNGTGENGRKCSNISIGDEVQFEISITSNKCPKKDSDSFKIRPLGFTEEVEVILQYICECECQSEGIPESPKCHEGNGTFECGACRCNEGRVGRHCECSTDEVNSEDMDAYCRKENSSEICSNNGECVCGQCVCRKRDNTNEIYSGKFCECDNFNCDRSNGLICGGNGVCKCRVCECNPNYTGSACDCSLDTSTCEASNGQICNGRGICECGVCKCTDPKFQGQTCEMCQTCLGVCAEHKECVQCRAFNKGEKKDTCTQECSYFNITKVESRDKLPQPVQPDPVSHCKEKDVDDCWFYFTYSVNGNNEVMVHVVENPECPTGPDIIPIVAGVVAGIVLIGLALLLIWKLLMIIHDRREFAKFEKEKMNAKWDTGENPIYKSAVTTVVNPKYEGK
Experimental: The CS-1 derived peptide, CLHPGEILDVPST, and the scrambled control peptide, CLHGPIELVSDPT, were synthesized on a Beckman 990 synthesizer using t-Boc methodology. The peptides were immobilized onto microtiter plates using the heterobifunctional crosslinker 3-(2-pyridyldithio)propionic acid N-hydroxysuccinimide ester (SPDP) as reported by Pierschbacher et al., Proc. Natl. Acad. USA, 80:1224-1227 (1983). Microtiter plates were coated with 20 μg/ml HSA for 2 hr. at room temperature, washed once with PBS and derivatized with 10 μg/ml SPDP for 1 hr. After washing, 100 μl of a 100 μg/ml cysteine containing peptide solution which had been recently dissolved was added to the wells and allowed to crosslink to the plates overnight at 4° C. Unbound peptide was removed from plates by washing with PBS. To block non-reacted sites, the plates are coated with 100 μl of a 2.5 mg/ml BSA solution in PBS for 1 hr. at 37° C. 100 μl of Jurkat cells (2.5×10^6 cells/ml) in DMEM plus BSA (2.5 mg/ml) was mixed with an appropriate concentration of the compound to be tested and the mixture was added to peptide coated dishes and incubated for 1 hr. at 37° C. Generally 100, 20, 5 and 1.25 μM concentrations of the compound were tested.
Following this incubation the plates were washed once with PBS and the attached cells were fixed with 3% paraformaldehyde in PBS and stained with 0.5% toluidine blue in 3.7% formaldehyde. The cells were stained overnight at room temperature and the optical density at 590 nm of toluidine blue stained cells was determined using a vertical pathway spectrophotometer to quantitate attachment (VMAX Kinetic Microplate Reader, Molecular Devices, Menlo Park, Calif.). This procedure is a modification of a previously published method (Cardarelli et al, J. Biol. Chem., 269:18668-18673 (1994) and Cardarelli et al, Proc. Natl. Acad. Sci. USA, 83:2647-2651 (1986)).

[2] = molecular target: T2, α4β1 integrin (Jurkat T-cell adhesion to IL-1 stimulated endothelial cell monolayers) (Homo sapiens, UniProt P05556+P13612); assay: Jurkat-endothelial cell adhesion assay (Jurkat EC); assay type: cell-based; conditions: Jurkat cells on IL-1 stimulated human umbilical vein endothelial cells; read-out: JK/EC (Jurkat EC Assay IC50 value range)
T2 construct: a T-cell line, Jurkat, known to express the α4β1 integrin; host or cells: Jurkat T-cell line
T2 sequence (P13612 34-1032): as the sequence (P13612 34-1032) above
T2 sequence (P05556 21-798): as the sequence (P05556 21-798) above
Procedure, shortened: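 Adhesion was expressed as percent of compound-free fluorescence after 20 min at 37° C (following 5 min settling on ice) of BCECF-loaded Jurkat T cells on washed HUVEC monolayers. The endothelium, passage 6 or lower, had received 0.1 ng/ml recombinant IL-1 for 4 hr at 37° C; compound was premixed with the T cells, typically at 100, 20, 5 and 1.25 μM.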

IC50 [1]	IC50 [2]	Compound
≥ 750 nM	≥ 1000 nM	CCOC(=O)N1CSC[C@H]1C(=O)N[C@@H](Cc1ccc(NC(=O)c2c(Cl)cccc2Cl)cc1)C(=O)OC (relative stereo) [Example 15, [R-(R*,S*)]-4-[[[1-[[4-[(2,6-Dichlorobenzoyl)amino]phenyl]methyl]-2-methoxy-2-oxoethyl]amino]carbonyl]-3-thiazolidinecarboxylic Acid 3-Ethyl Ester]
50 to 750 nM	≤ 250 nM	CCOC(=O)N1CSC[C@H]1C(=O)N[C@@H](Cc1ccc(NC(=O)c2c(Cl)cccc2Cl)cc1)C(=O)O (relative stereo) [Example 16, [R-(R*,S*)]-4-[[[1-Carboxy-2-[4-[(2,6-dichlorobenzoyl)amino]phenyl]ethyl]amino]carbonyl]-3-thiazolidinecarboxylic Acid 3-Ethyl Ester]
≥ 750 nM	≥ 1000 nM	COC(=O)[C@H](Cc1ccc(NC(=O)c2c(Cl)cccc2Cl)cc1)NC(=O)[C@H]1N(C(=O)OC(C)(C)C)CSC1(C)C (relative stereo) [Example 17, [R-(R*,S*)]-4-[[[1-[[4-[(2,6-Dichlorobenzoyl)amino]phenyl]methyl]-2-methoxy-2-oxoethyl]amino]carbonyl]-5,5-dimethyl-3-thiazolidinecarboxylic Acid 3-(1,1-Dimethylethyl)ester]
≥ 750 nM	≥ 1000 nM	COC(=O)[C@H](Cc1ccc(NC(=O)c2c(Cl)cccc2Cl)cc1)NC(=O)[C@H]1CSCN1C(=O)OCC1c2ccccc2-c2ccccc21 (relative stereo) [Example 18]
50 to 750 nM	≤ 250 nM	O=C(Nc1ccc(C[C@H](NC(=O)[C@H]2CSCN2C(=O)OCC2c3ccccc3-c3ccccc32)C(=O)O)cc1)c1c(Cl)cccc1Cl (relative stereo) [Example 19]
≥ 750 nM	≥ 1000 nM	COC(=O)[C@H](Cc1ccc(NC(=O)c2c(Cl)cccc2Cl)cc1)NC(=O)[C@H]1CSCN1C(=O)OCc1ccccc1 (relative stereo) [Example 20, [S-(R*,R*)]-4-[[[1-[[4-[(2,6-Dichlorobenzoyl)amino]phenyl]methyl]-2-methoxy-2-oxoethyl]amino]carbonyl]-3-thiazolidinecarboxylic Acid 3-Phenylmethyl Ester]
50 to 750 nM	≤ 250 nM	O=C(Nc1ccc(C[C@H](NC(=O)[C@H]2CSCN2C(=O)OCc2ccccc2)C(=O)O)cc1)c1c(Cl)cccc1Cl (relative stereo) [Example 21, [S-(R*,R*)]-4-[[[1-Carboxy-2-[4-[(2,6-dichlorobenzoyl)amino]phenyl]ethyl]amino]carbonyl]-3-thiazolidinecarboxylic Acid 3-Phenylmethyl Ester]
≥ 750 nM	≥ 1000 nM	COC(=O)[C@H](Cc1ccc(NC(=O)c2c(Cl)cccc2Cl)cc1)NC(=O)[C@H]1CSCN1C(=O)OC12CC3CC(CC(C3)C1)C2 (relative stereo) [Example 22, [S-(R*,R*)]-4-[[[1-[[4-[(2,6-Dichlorobenzoyl)amino]phenyl]methyl]-2-methoxy-2-oxoethyl]amino]carbonyl]-3-thiazolidinecarboxylic Acid 3-(Tricyclo[3.3.1.1^3,7]dec-1-yl)ester]
≤ 50 nM	≤ 250 nM	O=C(Nc1ccc(C[C@H](NC(=O)[C@H]2CSCN2C(=O)OC23CC4CC(CC(C4)C2)C3)C(=O)O)cc1)c1c(Cl)cccc1Cl (relative stereo) [Example 23, [S-(R*,R*)]-4-[[[1-Carboxy-2-[4-[(2,6-dichlorobenzoyl)amino]phenyl]ethyl]amino]carbonyl]-3-thiazolidinecarboxylic Acid 3-(Tricyclo[3.3.1.1^3,7]dec-1-yl)ester]
50 to 750 nM	250 to 1000 nM	COC(=O)[C@H](Cc1ccc(NC(=O)c2c(Cl)cccc2Cl)cc1)NC(=O)[C@H]1CSCN1C(=O)OCCN1CCOCC1 (relative stereo) [Example 24, [S-(R*,R*)]-4-[[[1-[[4-[(2,6-Dichlorobenzoyl)amino]phenyl]methyl]-2-methoxy-2-oxoethyl]amino]carbonyl]-3-thiazolidinecarboxylic Acid 3-[2-(4-Morpholinyl)ethyl]ester]
≤ 50 nM	≤ 250 nM	O=C(Nc1ccc(C[C@H](NC(=O)[C@H]2CSCN2C(=O)OCCN2CCOCC2)C(=O)O)cc1)c1c(Cl)cccc1Cl (relative stereo) [Example 25, [S-(R*,R*)]-4-[[[1-Carboxy-2-[-4-[(2,6-dichlorobenzoyl)amino]phenyl]ethyl]amino]carbonyl]-3-thiazolidinecarboxylic Acid 3-[2-(4-Morpholinyl)ethyl]ester]
≥ 750 nM	≥ 1000 nM	COC(=O)[C@H](Cc1ccc(NC(=O)c2c(Cl)cccc2Cl)cc1)NC(=O)[C@@H]1N(C(=O)OC(C)(C)C)CSC1(C)C (relative stereo) [Example 28, [S-(R*,R*)]-4-[[[1-[[4-[(2,6-Dichlorobenzoyl)amino]phenyl]methyl]-2-methoxy-2-oxoethyl]amino]carbonyl]-5,5-dimethyl-3-thiazolidinecarboxylic Acid 3-(1,1-Dimethylethyl)ester]
50 to 750 nM	250 to 1000 nM	CC(C)(C)OC(=O)N1CSC(C)(C)[C@@H]1C(=O)N[C@@H](Cc1ccc(NC(=O)c2c(Cl)cccc2Cl)cc1)C(=O)O (relative stereo) [Example 29, [S-(R*,R*)]-4-[[[1-Carboxy-2-[4-[(2,6-dichlorobenzoyl)amino]phenyl]ethyl]amino]carbonyl]-5,5-dimethyl-3-thiazolidinecarboxylic Acid 3-(1,1-Dimethylethyl)ester]
50 to 750 nM	≥ 1000 nM	CCOC(=O)N1CSC(C)(C)[C@@H]1C(=O)N[C@@H](Cc1ccc(NC(=O)c2c(Cl)cccc2Cl)cc1)C(=O)OC (relative stereo) [Example 30, [S-(R*,R*)]-4-[[[1-[[4-[(2,6-Dichlorobenzoyl)amino]phenyl]methyl]-2-methoxy-2-oxoethyl)amino]carbonyl]-5,5-dimethyl-3-thiazolidinecarboxylic Acid 3-Ethyl Ester]
≤ 50 nM	≤ 250 nM	CCOC(=O)N1CSC(C)(C)[C@@H]1C(=O)N[C@@H](Cc1ccc(NC(=O)c2c(Cl)cccc2Cl)cc1)C(=O)O (relative stereo) [Example 31, [S-(R*,R*)]-4-[[[1-Carboxy-2-[4-[(2,6-dichlorobenzoyl)amino]phenyl]ethyl]amino]carbonyl]-5,5-dimethyl-3-thiazolidinecarboxylic Acid 3-Ethyl Ester]
≥ 750 nM	≥ 1000 nM	COC(=O)[C@H](Cc1ccc(OCc2c(Cl)cccc2Cl)cc1)NC(=O)[C@H]1CSCN1C(=O)OC(C)(C)C (relative stereo) [Example 32, [S-(R*,R*)]-4-[[[1-[4-[(2,6-Dichlorophenyl)methoxy]phenyl]methyl]-2-methoxy-2-oxoethyl]amino]carbonyl]-3-thiazolidinecarboxylic Acid 3-(1,1-Dimethylethyl)ester]
50 to 750 nM	≤ 250 nM	CC(C)(C)OC(=O)N1CSC[C@@H]1C(=O)N[C@@H](Cc1ccc(OCc2c(Cl)cccc2Cl)cc1)C(=O)O (relative stereo) [Example 33, [S-(R*,R*)]-4-[[[1-Carboxy-2-[4-[(2,6-dichlorophenyl)methoxy]phenyl]ethyl]amino]carbonyl]-3-thiazolidinecarboxylic Acid 3-(1,1-Dimethylethyl)ester]
